Results taken from the METLIN SMRT retention time set (Domingo-Almenara et al. 2019).

Test: gradient 5% acetonitrile 3 min, to 50% in 2 min, to 85% in 15 min, held 3 min, 100 µL/min
Conditions: column: Zorbax Extend-C18 2.1 x 50 mm; eluents: water / acetonitrile, 0.1% formic acid
Method in brief: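 Values are retention times taken from adduct peaks that software picked and an analyst inspected. The pure standards were run as mixtures of ~100 molecules on HPLC linked to a quadrupole time-of-flight mass spectrometer, in positive and negative ionization mode. A Zorbax Extend-C18 column (2.1 × 50 mm, 1.8 μm) was used at 100 μL/min with water and acetonitrile, each including 0.1% formic acid.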

| Structure (SMILES) | RP-LC retention time [s] |
| --- | --- |
| CCOCCCNC(=O)CCc1c(-c2ccc(F)cc2)nc2ccccn12 | 588 |
| O=C(c1n[nH]c2ccccc12)N1CCn2c(nnc2-c2ccccc2)C1 | 664 |
| Cc1nc2nc(-c3ccccc3)nn2c(Sc2ccccc2N)c1C | 710 |
| Cc1ccc(C)c(-c2csc(NC(=O)COc3ccccc3)n2)c1 | 1150 |
| O=C(c1cc(F)ccc1Cl)N1CCc2nc(-c3ccc(F)cc3)ncc2C1 | 1020 |
| CCc1nnc(-c2cc(C)n(CC(=O)Nc3ccc(Cl)cc3F)c2C)o1 | 866 |
| Cc1cccc(CS(=O)(=O)NCCCN2CCN(c3ccccc3)CC2)c1 | 588 |
| COc1ccc(N2CCN(c3cc(SCC(=O)Nc4ccc(F)cc4F)ncn3)CC2)cc1 | 1050 |
| CCn1cc(C(=O)NCC2CC2)c(S(=O)(=O)N2CCSCC2)n1 | 817 |
| CCc1nn2c(CNC(=O)c3ccn(CC)n3)c(-c3ccccc3)nc2s1 | 822 |
| Cc1ccc(C)c(NC(=O)Nc2ccc3nncn3c2)c1 | 747 |
| O=c1ccc(S(=O)(=O)N2CCOCC2)cn1Cc1cccc(F)c1 | 755 |
| CC[C@H](C)[C@H](NC(=O)N1C[C@@H]2C[C@@H](C1)c1cccc(=O)n1C2)C(=O)O | 598 |
| Cc1cc(Cl)ccc1NC(=O)N1C[C@@H]2C[C@H](NS(=O)(=O)c3ccccc3)[C@H]1C2 | 922 |
| COc1ccc(-c2noc(-c3nn(-c4ccc(F)c(F)c4)ccc3=O)n2)cc1 | 914 |
| CCn1cnc2ccc(-c3noc(CCc4c[nH]c5ccccc45)n3)cc21 | 735 |
| CCc1ccc(CNC(=O)c2cc3n(n2)CC(C)(C(=O)NCc2ccc(F)cc2)N(C)C3=O)cc1 (stereo not drawn) | 858 |
| COc1ccc(-c2ncc3c(n2)CCN(C(=O)Nc2ccccc2OC)C3)cc1 | 905 |
| COCCn1nnnc1C1CC2(CCOCC2)C(=O)N1Cc1cc(F)cc(F)c1 (stereo not drawn) | 740 |
| Nc1nc(OCc2cc(Br)cs2)c2[nH]cnc2n1 | 687 |
| COc1cc(OC)cc(C(=O)N2CCC3(C2)C(=O)Nc2ccc(OC)cc23)c1 (stereo not drawn) | 710 |
| COc1ccc(Br)cc1CNC(=O)CN1C(=O)CSc2ncccc21 | 756 |

| Structure (SMILES) | RP-LC retention time [s] |
| --- | --- |
| O=C(CCC1CCN(c2cc(NC3CC3)ncn2)CC1)NCc1ccccn1 | 541 |
| Cc1ccc(NC(=O)CSc2ccc(N3CCCC(C(=O)NC4CC4)C3)nn2)c(Cl)c1 (stereo not drawn) | 705 |
| O=C(Nc1cccc(Cl)c1F)N1CCCC1c1nncn1-c1ccccc1 (stereo not drawn) | 745 |
| CCc1noc(-c2ccnc(-n3cnc(C(=O)NC4CCCCCC4)c3)c2)n1 | 640 |
| CCOc1ccc(CCNC(=O)c2cc(S(=O)(=O)N3CCCC3)c(C)n2C)cc1OCC | 951 |
| O=C(CN(CC1CCCO1)C(=O)c1ccc(Cl)cc1)N1CCNCC1 (stereo not drawn) | 605 |
| Cc1cc(C)nc(N2CCN(c3nc(C)cc(C)c3C#N)CC2)n1 | 990 |
| Cc1ccccc1Nc1c(-c2ccccc2)nc2cnccn12 | 906 |
| COc1cccc(CC(=O)N2CCC3(CC2)NC(=O)c2cc(C)ccc2N3C)c1 | 798 |
| CCN1C(=O)c2c(C(=O)NCCc3cccc(C)c3)ncn2CC1(C)C(=O)NC1CCCC1 (stereo not drawn) | 819 |
| O=C(NC1CC1)c1ccc(N2CCC(NCc3ccc(Cl)cc3)C2)nc1 (stereo not drawn) | 574 |
| COc1ccc2[nH]cc(CCNC(=O)CCCn3c4ccccc4c4cnn(C)c(=O)c43)c2c1 | 795 |
| O=C(O)c1ccc2c(c1)CC(=O)N2Cc1cccc(F)c1 | 729 |
| O=C(NC1CCN(c2cc(-c3ccccc3)[nH]n2)CC1)c1ccc(Cl)s1 | 838 |
| CCOC(=O)c1noc2nc(C)nc(N3CCN(c4ccccc4F)CC3)c12 | 1070 |
| COc1ccc(N2CC(c3nc(-c4cccc(Cl)c4)no3)CC2=O)cc1OC (stereo not drawn) | 951 |
| COCCN1C(=O)[C@H]2CN(S(=O)(=O)c3ccccc3)C[C@H]2C1=O | 712 |
| CCN1c2ccc(F)cc2C(=O)NC12CCN(C(=O)Cc1ccccc1C)CC2 | 846 |
| COc1ccccc1N1CCN(c2cc(SCC(=O)Nc3cccc(C#N)c3)ncn2)CC1 | 895 |
| COc1cc(OC)cc(-c2nc(-c3cccc(-c4ccn[nH]4)c3)no2)c1 | 1010 |
| C#CCSc1nc2sc(C)c(C)c2c(=O)n1C | 983 |
| CC(C)Cc1ccc(S(=O)(=O)N2CCc3c(c(-c4nnc(-c5ccccc5)o4)nn3C)C2)cc1 | 1150 |

| Structure (SMILES) | RP-LC retention time [s] |
| --- | --- |
| CCC(c1cccs1)N1C(=O)[C@H]2CN(S(=O)(=O)c3cc(F)ccc3F)C[C@H]2C1=O (stereo partly drawn) | 936 |
| Cc1c(S(=O)(=O)NCc2ccc3c(c2)CCN3C(=O)C(C)C)cnn1C(F)F | 801 |
| COc1ccc(N2CCN(c3cc(SCC(=O)Nc4ccccc4F)ncn3)CC2)cc1 | 1030 |
| Cc1oc(-c2[nH]ncc2C(=O)N2CCCCC2)cc1S(=O)(=O)Nc1ccc(Cl)cc1 | 799 |
| CC(C)N1CCN(C(=O)c2sc3ncccc3c2-n2cccc2)CC1 | 597 |
| Cc1cc(-c2nc(-c3ccc(F)cc3)no2)c(C)n1CC(=O)NC1CCCC1 | 1080 |
| COc1ccc(NC(=O)CSc2cc(N3CCN(c4ccc(OC)cc4)CC3)ncn2)cc1 | 859 |
| CNC(=O)c1cccn1Cc1ccc(F)cc1 | 791 |
| Cc1cccc(CNC(=O)c2ncn3c2C(=O)N(C2CC2)C(C)(C(=O)NC2CCCC2)C3)c1 (stereo not drawn) | 784 |
| CCN1C[C@]2(OC(=O)c3ccccc3NC(C)=O)CCC(OC)[C@@]34C5C[C@@H]6C(OC)C[C@](O)([C@@H](CC23)[C@@H]14)C5(O)[C@H]6OC (stereo partly drawn) | 760 |
| CC(=O)Nc1nc(-c2ccc(S(=O)(=O)N3CCN(c4ccccc4)CC3)cc2)cs1 | 960 |
| Cc1nnc(-c2ccc3ccn(CC(=O)N4CCCc5ccccc54)c3c2)o1 | 814 |
| CCC(C)CC(=O)N1CCCN(C2=NS(=O)(=O)C(c3ccc(Cl)cc3)=C2C)CC1 (stereo not drawn) | 944 |
| Cc1nc2ccccc2c(=O)n1Cc1noc(-c2ccc(C(F)(F)F)cc2)n1 | 987 |
| COc1ccccc1-c1nc(Cn2nnc(-c3nc(-c4cccc(Cl)c4)no3)c2C)c(C)o1 | 1240 |
| COc1ccc(N2CCN(CCNC(=O)CCSc3ccccc3)CC2)cc1 | 606 |
| O=C(Nc1cccc(F)c1)C1CCc2nc(N3CCCCC3)ncc2C1 (stereo not drawn) | 800 |
| CCOC(=O)c1oc2ccccc2c1NC(=O)C1CCCN1S(C)(=O)=O (stereo not drawn) | 796 |
| COc1ccccc1Cc1nc(C2CC(=O)N(c3ccc(F)c(Cl)c3)C2)no1 (stereo not drawn) | 1020 |
| O=C(Cc1ccc(NC(=O)CCS(=O)(=O)c2ccccc2)cc1)NCc1cccs1 | 701 |
| COc1ccccc1-c1noc(-c2nnn(Cc3nc(-c4ccccc4OC)oc3C)c2C)n1 | 1060 |
| CCc1nc(-c2csc(S(=O)(=O)N3CCCC(C(=O)Nc4ccccc4)C3)c2)no1 (stereo not drawn) | 1030 |

| Structure (SMILES) | RP-LC retention time [s] |
| --- | --- |
| COc1ccccc1Nc1c(-c2ccc(OC)c(OC)c2)nc2cnccn12 | 806 |
| Cn1c(N2CCCC(C(=O)NC3CCN(Cc4ccccc4)CC3)C2)cc(=O)n(C)c1=O (stereo not drawn) | 576 |
| O=C(Nc1ccc(F)cc1F)N1CCCC1c1nc(-c2ccc(F)cc2F)no1 (stereo not drawn) | 946 |
| Cc1ccc(C)c(Cn2nc3ccc(S(=O)(=O)N4CCCC4)cn3c2=O)c1 | 915 |
| NC(=O)c1c(NC(=O)C2=COCCO2)sc2c1CCCCC2 | 987 |
| O=C(c1ccco1)N1CCCC(c2nnc(-c3cccs3)o2)C1 (stereo not drawn) | 690 |
| CCC(C)C(NC(=O)c1ccc(F)cc1)C(=O)Nc1nc2ccccc2[nH]1 (stereo not drawn) | 746 |
| O=C(NCC1CCCCC1)C1CCN(C(=O)c2ncn3c2COC(c2ccc(Cl)cc2)C3)CC1 (stereo not drawn) | 830 |
| CCc1ccccc1NS(=O)(=O)c1cn(CC(C)C)c2ncccc12 | 1050 |
| CCC(=O)N1CCc2cc(N3CC(C(=O)NCc4cccnc4)CC3=O)ccc21 (stereo not drawn) | 579 |
| O=C(Nc1cccc(F)c1)c1c(O)c2cccnc2n(-c2cccc(F)c2)c1=O | 723 |
| COC(=O)c1ccc(NC(=O)C(=O)NC(C)Cc2cccs2)cc1 (stereo not drawn) | 900 |
| CCN(C(=O)Cn1ncc2c(c1=O)N(C)C(=O)CS2)c1cccc(C)c1 | 756 |
| NC(=O)c1cc(N2CCOCC2)nc2ccc(F)cc12 | 688 |
| Cc1ccc(N2CCC(NC(=O)c3cccs3)C2=O)cc1C (stereo not drawn) | 827 |
| Cc1nc(-c2csc(S(=O)(=O)N3CCCC(C(=O)Nc4c(C)cccc4C)C3)c2)no1 (stereo not drawn) | 1060 |
| CCN1C=C(C(=O)OCc2ccccc2Cl)C(C)=NS1(=O)=O | 1010 |
| CC(C)=CCC/C(C)=C\C(N)=O | 816 |
| O=C(COc1ccc(Cl)cc1)Nc1nnc(SCC(=O)NC2CCCC2)s1 | 798 |
| CCc1nc(N)n(CC(=O)Nc2ccc(Br)cc2)c(=O)c1C | 666 |
| O=C(NCCN1CCOCC1)C1CCN(Cc2cc3ccccc3n2Cc2ccccc2Cl)CC1 | 621 |
| Cn1cccc1CN(C(=O)C1(c2ccccc2)CCOCC1)C1CC1 | 843 |
